The source of these data is US4638088A, “Pesticidal biphenylyloxy and biphenylylalkoxy aryl acyl urea compounds” (Union Carbide Corporation, priority 1984, dated 1987).

In one data set the test system is southern armyworm. Description: Southern Armyworm Leaf Spray Bait Test. The data set is classed as in vivo. The note with it: Spodoptera eridania, 120 h; for mortality at 25 ppm: read-out: Percent Control (after 5 days), Application Rate 25 ppm; for mortality at 100 ppm: read-out: Percent Control (after 5 days), Application Rate 100 ppm; for mortality at 500 ppm: read-out: Activity at 500 ppm, SAW, 500 ppm, Southern Armyworm larvae, up to five days; for mortality at 2 ppm: read-out: Percent Control (after 5 days), Application Rate 2 ppm; for mortality at 4 ppm: read-out: Percent Control (after 5 days), Application Rate 4 ppm; for mortality at 8 ppm: read-out: Percent Control (after 5 days), Application Rate 8 ppm; for mortality at 125 ppm: read-out: Percent Control (after 5 days), Application Rate 125 ppm. As for the experimental part:
(§1) Suspension of the test compounds were prepared by dissolving one gram of compound in 50 milliliters of acetone in which had been dissolved 0.1 gram (10 percent of the weight of compound) of an alkylphenoxy polyethoxyethanol surfactant, as an emulsifying or dispersing agent. The resulting solution was mixed into 150 milliliters of water to give roughly 200 milliliters of a suspension containing the compound in finely divided form. The thus-prepared stock suspension contained 0.5 percent by weight of compound. The test concentrations in parts per million by weight employed in the tests described hereinbelow were obtained by appropriate dilutions of the stock suspension with water. Certain of the test compounds were also prepared by dissolving 375 mg of compound in 7.5 ml of dimethylformamide. Fifteen milliliters of acetone containing 37.5 mg (10 percent of the weight of test compound) of an alkylphenoxy polyethoxyethanol surfactant, as a wetting/emulsifying/dispersing agent was added to the dimethylformamide solution. Fifty-two and one-half milliliters of water wasa mixed into the dimethylformamide-acetone mixture to give roughly 75 ml of a suspension containing the compound in solution or in finely divided form. The thus prepared stock suspension contained 0.5 percent by weight of compound. The test procedures were as follows:
Larvae of the southern armyworm (Spodoptera eridania, (Cram.), reared on Tendergreen bean plants at a temperature of 80°±5° F. and a relative humidity of 50±5 percent, constituted the test insects.
Potted Tendergreen bean plants of standarad height and age were placed on a revolving turntable and sprayed with 100-110 milliliters of test compound formulation by use of a DeVilbiss spray gun set at 40 psig air pressure. This application, which lasted 25 seconds, was sufficient to wet plants to run-off. As a control, 100-110 milliliters of a water-acetone-emulsifier solution containing no test compound was also sprayed on infested plants. When dry, the paired leaves were separated and each one was placed in a 9 centimeter Petri dish lined with moistened filter paper. Five randomly selected larvae were introduced into each dish and the dishes were closed. The closed dishes were labeled and held at 80°-85° F. for up to five days. Although the larvae could easily consume the whole leaf within twenty-four hours, no more food was added. Larvae which were unable to move the length of the body, even upon stimulation by prodding, were considered dead. Percent mortality was recorded for various concentration levels.

For the next data set, the system named is Mexican bean beetle. The experiment in a line: Mexican Bean Beetle Leaf Spray Test. The following applies: Mexican Bean Beetle larvae, five days; for mortality at 500 ppm: Epilachna varivestis, 120 h, read-out: Activity at 500 ppm, MBB; for Activity at 500 ppm, MBB: 7200 min. The data set is classed as in vivo, Epilachna varivestic. As for the experimental part: as §1
Fourth instar larvae of the Mexican bean beetle (Epilachna varivestic, Muls.), reared on Tendergreen bean plants at a temperature of 80°±5° F. and 50±5 percent relative humidity, were the test insects. For certain of the tests second instar larvae (weighting about 6 mg) of the Mexican bean beetle (Epilachna varaivestis, Muls.), reared on Sieva Pole lime bean plants at a temperature of 80°±5° F. and 50±5 percent relative humidity, were the test insects.
The test compounds were formulated by diluting the stock suspension with water to give a suspension containing 500 parts of test compound per million parts of final formulation. Potted Tendergreen bean plants of standard height and age were placed on a revolving turntable and sprayed with 100-110 milliliters of test compound formulation by use of a DeVilbiss spray gun set at 40 psig air pressure. This application, which lasted 25 seconds, was sufficient to wet plants to run-off. As a control, 100-110 milliliters of a water-acetone-emulsifier solution containing no test compound was also sprayed on infested plants. When dry, the paired leaves were separated and each was placed in a 9 centimeter Petri dish lined with moistened filter paper. Five randomly selected larvae were introduced into each dish, and the dishes were closed. The closed dishes were labeled and held at a temperature of 80°±5° F., for five days. Although the larvae could easily consume the leaf within 24 to 48 hours, no more food was added. Larvae which were unable to move the length of the body, even upon stimulation, were considered dead. Percent mortality was recorded for various concentration levels.

On to `O=C(NC(=O)c1cc(F)ccc1Cl)Nc1cc(Cl)c(Oc2cccc(-c3ccccc3)c2)c(Cl)c1` [Comparative Example G, reference compound], for which the mortality at 6.25 ppm in the data set on southern armyworm (read-out: Percent Control (after 5 days), Application Rate 6.25 ppm) came to 0%. Further, in the data set on southern armyworm, the mortality at 25 ppm was 0% and the mortality at 100 ppm amounted to 0%.

Consider `Cc1cc(NC(=S)NC(=O)c2ccccc2Cl)c(C)c(Cl)c1Oc1ccccc1-c1ccccc1` [Example 7], for which the mortality at 500 ppm with Mexican bean beetle and with southern armyworm was 71 to 100% each time.

Turning to `O=C(NC(=O)c1c(F)cccc1F)Nc1cc(Cl)c(OCc2ccccc2-c2ccccc2)c(Cl)c1` [Example 28], the mortality at 500 ppm in the data set on Mexican bean beetle and in the data set with southern armyworm was 71 to 100% each time.

As to `Cc1cc(NC(=S)NC(=O)c2ccccc2Cl)c(C)c(Cl)c1Oc1ccc(-c2ccccc2)cc1` [Example 12], the mortality at 500 ppm in the data set with Mexican bean beetle lay within 71 to 100%; in the data set with southern armyworm, 0 to 30%.

As to `Cc1cc(NC(=O)NC(=O)c2ccccc2F)c(C)c(Cl)c1Oc1ccc(-c2ccccc2)cc1Cl` [Example 15], the mortality at 500 ppm in the data set with Mexican bean beetle and in the data set on southern armyworm was 71 to 100% in each case.

Take `Cc1cc(NC(=O)NC(=O)c2ccccc2Cl)c(C)c(Cl)c1Oc1ccc(S(=O)(=O)c2ccc(Cl)cc2)cc1` [Comparative Example H, reference compound]: in the data set with southern armyworm, the mortality at 2 ppm worked out at 0%, the mortality at 4 ppm was 0% and the mortality at 8 ppm worked out at 10%.

For the molecule `Cc1cc(NC(=O)NC(=O)c2c(F)cccc2Cl)c(C)c(Cl)c1Oc1ccc(Br)cc1-c1ccccc1` [Example 26], the mortality at 500 ppm with Mexican bean beetle and in the data set on southern armyworm was 71 to 100% throughout.

Take `O=C(NC(=O)c1c(F)cccc1F)Nc1cc(Cl)c(Oc2cccc3ccccc23)c(Cl)c1` [Comparative Example C, reference compound]: in the data set on southern armyworm, the mortality at 8 ppm worked out at 0% and the mortality at 125 ppm stood at 100%. The mortality at 31 ppm in the data set with southern armyworm (read-out: Percent Control (after 5 days), Application Rate 31 ppm) amounted to 40%.

As to `Cc1cc(NC(=O)NC(=O)c2c(Cl)cccc2Cl)c(C)c(Cl)c1Oc1ccccc1-c1ccccc1` [Example 4], the mortality at 500 ppm in the data set on Mexican bean beetle and in the data set on southern armyworm was 71 to 100% each time.

In the case of `Cc1cc(NC(=O)NC(=O)c2c(F)cccc2F)c(C)c(Cl)c1Oc1ccccc1-c1ccccc1` [Example 33], in the data set with southern armyworm, the mortality at 2 ppm worked out at 100% and the mortality at 8 ppm was found to be 100%.

In the case of `O=C(NC(=O)c1ccc(F)cc1Cl)Nc1cc(Cl)c(Oc2ccc(-c3ccccc3)cc2)c(Cl)c1` [Comparative Example F, reference compound], the mortality at 6.5 ppm with southern armyworm (read-out: Percent Control (after 5 days), Application Rate 6.5 ppm) is 0%. For the same molecule, in the data set with southern armyworm, the mortality at 25 ppm was 0% and the mortality at 100 ppm was determined as 0%.

With `O=C(NC(=O)c1ccccc1Cl)Nc1ccc(Oc2ccc(Oc3ccccc3)cc2)cc1` [E, reference compound], in the data set with southern armyworm, the mortality at 25 ppm was found to be 0% and the mortality at 100 ppm stood at 0%.

Consider `O=C(NC(=O)c1ccccc1Cl)Nc1cc(Cl)c(Oc2ccccc2-c2ccccc2)c(Cl)c1` [Example 32], for which the mortality at 500 ppm in the data set on Mexican bean beetle and with southern armyworm was 71 to 100% in each case.

In the case of `Cc1cc(Oc2ccccc2-c2ccccc2)c(Cl)cc1NC(=O)NC(=O)c1ccccc1Cl` [Example 21], the mortality at 500 ppm in the data set with Mexican bean beetle and in the data set on southern armyworm was 71 to 100% throughout.

Turning to `Cc1cc(NC(=O)NC(=O)c2c(F)cccc2F)c(C)c(Cl)c1Oc1ccc(Br)cc1-c1ccccc1` [Example 25], the mortality at 500 ppm with Mexican bean beetle and in the data set on southern armyworm was 71 to 100% in each case.

Turning to `Cc1cc(Oc2ccccc2-c2ccccc2)c(Cl)cc1NC(=O)NC(=O)c1ccccc1C(F)(F)F` [Example 27], the mortality at 500 ppm with Mexican bean beetle and in the data set with southern armyworm was 0 to 30% each time.

`O=C(NC(=S)Nc1cc(Cl)c(OCc2ccccc2-c2ccccc2)c(Cl)c1)c1ccccc1Cl` [Example 29]: the mortality at 500 ppm with Mexican bean beetle and in the data set with southern armyworm was 71 to 100% throughout.

Regarding `Cc1cc(NC(=O)NC(=O)c2ccccc2Cl)c(C)c(Cl)c1Oc1ccc(Br)cc1-c1ccccc1` [Example 24], the values for the mortality at 500 ppm with Mexican bean beetle and in the data set on southern armyworm were 0 to 30% and 71 to 100%, respectively.

On to `Cc1ccccc1C(=O)NC(=S)Nc1cc(C)c(Oc2ccccc2-c2ccccc2)c(Cl)c1C` [Example 9], for which the mortality at 500 ppm with Mexican bean beetle and in the data set on southern armyworm was 71 to 100% throughout.

In the case of `Cc1cc(NC(=O)NC(=O)c2c(F)cccc2F)c(C)c(Cl)c1Oc1ccc(Cl)cc1-c1ccccc1` [Example 20], the mortality at 500 ppm with Mexican bean beetle and with southern armyworm was 71 to 100% throughout.

`O=C(NC(=O)c1c(F)cccc1F)Nc1cc(Cl)c(Oc2ccccc2-c2ccccc2)c(Cl)c1` [Example 31]: the mortality at 500 ppm in the data set with Mexican bean beetle and in the data set with southern armyworm was 71 to 100% throughout.

As for `Cc1cc(NC(=O)NC(=O)c2c(F)cccc2F)c(C)c(Cl)c1Oc1ccccc1-c1ccccc1` [Example 6], the mortality at 500 ppm in the data set on Mexican bean beetle and in the data set on southern armyworm was 71 to 100% throughout.

Take `Cc1cc(NC(=O)NC(=O)c2ccccc2Cl)c(C)c(Cl)c1Oc1ccc(-c2ccccc2)cc1Cl` [Example 1, 1-(2-chlorobenzoyl)-3-[2,5-dimethyl-3-chloro-4-(2-chloro-4-phenylphenoxy)phenyl]urea]: the mortality at 500 ppm with Mexican bean beetle and in the data set on southern armyworm was 71 to 100% throughout.

Regarding `Cc1cc(NC(=O)NC(=O)c2c(F)cccc2Cl)c(C)c(Cl)c1Oc1ccc(Cl)cc1-c1ccccc1` [Example 19], the mortality at 500 ppm with Mexican bean beetle and in the data set with southern armyworm was 71 to 100% each time.

As for `O=C(NC(=O)c1c(F)cccc1F)Nc1ccc(Oc2ccc(Oc3ccccc3)cc2)cc1` [D, reference compound], in the data set with southern armyworm, the mortality at 25 ppm worked out at 0% and the mortality at 100 ppm is 0%.

On to `Cc1cc(NC(=O)NC(=O)c2c(F)cccc2Cl)c(C)c(Cl)c1Oc1ccc(-c2ccccc2)cc1Cl` [Example 16], for which the mortality at 500 ppm in the data set with Mexican bean beetle and in the data set with southern armyworm was 71 to 100% each time.

Take `Cc1cc(NC(=S)NC(=O)c2ccccc2Cl)c(C)c(Cl)c1Oc1ccc(Br)cc1-c1ccccc1` [Example 13]: the mortality at 500 ppm in the data set on Mexican bean beetle and in the data set on southern armyworm was 0 to 30% in each case.

As to `Cc1ccc(Oc2ccc(NC(=O)NC(=O)c3ccccc3Cl)cc2Cl)c(C)c1` [Comparative Example B, reference compound], in the data set with southern armyworm, the mortality at 8 ppm was 20% and the mortality at 125 ppm was determined as 100%. Also, the mortality at 21 ppm in the data set with southern armyworm (read-out: Percent Control (after 5 days), Application Rate 21 ppm) was found to be 30%.

Turning to `Cc1cc(NC(=S)NC(=O)c2ccccc2F)c(C)c(Cl)c1Oc1ccccc1-c1ccccc1` [Example 30], in the data set with Mexican bean beetle, the “Activity at 500 ppm, MBB” value is “C (0- 30% Kill)”.

Consider `O=C(NC(=O)c1c(F)cccc1F)Nc1cc(Cl)c(OCc2ccccc2-c2ccccc2)c(Cl)c1` [Example 35], for which, in the data set on southern armyworm (read-out: Percent Control (after 5 days), Application Rate 1 ppm), the mortality at 1 ppm was 100%. Besides, in the data set with southern armyworm, the mortality at 4 ppm was 100%.

`Cc1cc(NC(=S)NC(=O)c2ccccc2F)c(C)c(Cl)c1Oc1ccccc1-c1ccccc1` [Example 8]: the “Activity at 500 ppm, MBB” value in the data set on Mexican bean beetle is “A (71- 100% Kill)”.

Regarding `Cc1cc(NC(=S)NC(=O)c2ccccc2F)c(C)c(Cl)c1Oc1ccccc1-c1ccccc1` [Example 34], in the data set with southern armyworm, the mortality at 2 ppm came out at 100% and the mortality at 8 ppm was found to be 100%.
